Laboratory results taken from EP3959200B1, “NEW TRIAZOLE AND TRIAZOLOTHIADIAZINE DERIVATIVES EXERTING CYTOTOXIC AND APOPTOTIC EFFECTS ON A549 CELLS THROUGH AKT INHIBITION” (Anadolu Universitesi, priority 2020, dated 2022).
Converted amounts (≈) assume the structure as drawn.

Tests used:
[1] = tested on: A549 human lung adenocarcinoma cells; assay: MTT cytotoxicity assay; assay type: cell-based; conditions: for IC50: Homo sapiens, A549, MTT, 24 hours, read-out: IC50 values A549 cell line; for SI values: SI= IC50 for NIH/3T3 cell line / IC50 for A549 cell line; for cytotoxic effects on A549 cell line: in the tested concentration range (0.12-500 µg/mL), result in words
Procedure: (§1) In order to be used from this stock, the concentrations ranging from 0.12 to 500 µg/mL (with the highest DMSO ratio of 0.1%) were prepared.
A549 human lung adenocarcinoma cells (ATCC® CCL-185™) were grown in RPMI 1640 medium supplemented with 10% fetal bovine serum, 1% penicillin/streptomycin, in an incubator with carbon dioxide, in a culture medium at 37°C at 95% relative humidity.
(§2) MTT protocol was applied to determine cell viability. […] At the end of the incubation period, 20 µL of MTT dye (5 mg/mL) was added into each well, and the cells were incubated for an additional 4 hours at 37°C. After this process, MTT dye was removed from the cells, 200 µL of DMSO was added to each well and left to incubate for 10 minutes. Color change was detected at 540 nm in the ELx808-IU Bio-Tek plate reader. Inhibition% values were determined for each concentration of compounds. Inhibitory concentration 50 (IC50) values of the compounds were calculated by drawing a dose-response curve with their concentrations against these values. All experiments were carried out in triplicate. The results were given as mean±standard deviation. Inhibition% = 100−[(ODtest compound−ODblank/ODsolvent control−ODblank)×100] [formula]
Selective index (SI) values were determined using the following formula. SI […] IC50 for NIH/3T3 cell line/IC50 for A549 cell line [formula]

Akt = Akt activity assay (Akt colorimetric in cell ELISA); assay type: cell-based, human; conditions: for Inhibition % / IC50 value (Akt inhibitory effects): 24 hours; for Akt inhibitory effects: result in words
Procedure: Briefly, the media was removed from the wells and 100 µL of 4% formaldehyde was added. The plate was incubated for 15 minutes in a fume hood. Formaldehyde was removed and the plate was washed twice with 1X […] solution (TBS) to 100 µL/well. 1X TBS was removed and 100 µL of 1X permeabilization buffer was added to each well and left at room temperature for 15 minutes. After removing the 1X permeabilization buffer, the wells were washed once with 100 µL of 1X TBS. 1X TBS was removed and 100 µL of the quenching solution was added to the wells and left at room temperature for 20 minutes. Then, this solution was removed. The plate was washed once with 1X TBS, 100 µL of blocking buffer was added to the wells and left at room temperature for 30 minutes. At the end of this period, the blocking buffer was removed and 50 µL of primary antibody was added to the wells. The plate was closed with a sealer and incubated overnight at 4°C. The primary antibody was removed and plate wells were washed three times with 100 µL of wash buffer. After removing the wash buffer, 100 µL of diluted horseradish peroxidase (HRP) conjugate was added to the wells. It was incubated for 30 minutes at room temperature. After removing this conjugate, 100 µL of 3,3',5,5'-tetramethylbenzidine (TMB) stop solution was added and absorbance was measured at 450 nm for 30 minutes. The experiment was carried out in triplicate. The values of the blank wells were subtracted from the values of the untreated control and treated cells. The Akt activity% was determined as the relative absorbance of treated versus untreated control cells.

A549 cells = assay: FITC Annexin V/PI apoptosis detection by flow cytometry; assay type: cell-based, human; conditions: for apoptosis induction: flow cytometry, result in words
Procedure: The cells incubated with the compounds were centrifuged at 400 × g for 5 minutes in labeled tubes and washed twice with 1xPBS. Then, the cells were suspended in 1×Annexin-V binding solution at 1×10^6 cells/mL and 100 µL of this cell solution was taken and transferred to tubes. The cells were treated with 5 µL Annexin V FITC and 5 µL of propidium iodide (PI) dyes. Then, the cells were kept at room temperature in the dark for 15 minutes to allow the dye to bind. 400 µL of 1×Annexin-V binding cell solution was transferred to flow cytometry tubes and the amount of early and late apoptotic cells was determined relative to the positive control using the BD FACSAria flow cytometer FACSDiva version 6.1.1 software.

[2] = tested on: NIH/3T3 mouse embryonic fibroblast cells; assay: MTT cytotoxicity assay; assay type: cell-based; conditions: for IC50: Mus musculus, NIH3T3, 24 hours, read-out: IC50 values NIH/3T3 cell line
Procedure: as §1
NIH/3T3 mouse embryonic fibroblast cells (ATCC® CRL-1658™) were grown in DMEM medium supplemented with 10% fetal bovine serum, 1% penicillin/streptomycin, in an incubator with carbon dioxide, in a culture medium at 37°C at 95% relative humidity.
as §2

Compound | IC50 [1] [µg/mL] | SI values [1] | Early apoptotic cells % (A549 cells; at IC50 concentrations) [%] | Late apoptotic cells % (A549 cells; at IC50 concentrations) [%] | Necrosis % (A549 cells; at IC50 concentrations) [%] | Viable cells% (A549 cells; at IC50 concentrations) [%] | IC50 [2] [µg/mL] | further results
c1ccc(C2=Nn3c(CCc4cccnc4)nnc3SC2)cc1 [Compound 2a, 6-Phenyl-3-(2-(pyridine-3-yl)ethyl)-7H-[1,2,4]triazolo[3,4-b][1,3,4]thiadiazine] | 7.23 ± 1.62 (≈ 22.5 µM) | >69.16 | 1.7 | 2.7 | 0.7 | 95.0 | > 500 | Inhibition % (Akt; 1.81 µg/mL): 8.75±2.77%; Inhibition % (Akt; 3.62 µg/mL): 7.69±2.91%; Inhibition % (Akt; 7.23 µg/mL): 35.45±5.82%; Akt inhibitory effects (Akt): did not show significant Akt inhibitory effects
O=[N+]([O-])c1ccc(C2=Nn3c(CCc4cccnc4)nnc3SC2)cc1 [Compound 2b, G-(4-Nitrophenyl)-3-(2-(pyridine-3-yl)ethyl)-7H-[1,2,4]triazolo[3,4-b] [1,3,4]thiadiazine] | 8.13 ± 0.81 (≈ 22.2 µM) | >61.50 | 2.4 | 2.4 | 2.5 | 94.6 | > 500 | Inhibition % (Akt; 4.07 µg/mL): 34.75±2.25%; Inhibition % (Akt; 8.13 µg/mL): 33.16±14.16%; Akt inhibitory effects (Akt): did not show significant Akt inhibitory effects
Fc1ccc(C2=Nn3c(CCc4cccnc4)nnc3SC2)cc1 [Compound 2c, 6-(4-fluorophenyl)-3-(2-(pyridine-3-yl)ethyl)-7H-[1,2,4]triazolo[3,4-b][1,3,4]thiadiazine] | 11.8 ± 2.25 (≈ 34.9 µM) | >42.27 | 1.8 | 6.0 | 4.6 | 87.6 | > 500 | Inhibition % (Akt; 2.95 µg/mL): 54.17±26.41%; Inhibition % (Akt; 5.92 µg/mL): 73.98±8.55%; Inhibition % (Akt; 11.83 µg/mL): 82.60±2.88%; IC50 value (Akt inhibitory effects) (Akt): 2.95 ± 0.05 µg/mL (≈ 8.69 µM); apoptotic activity (A549 cells; at IC50 concentrations, early plus late apoptotic cells): 7.8%; apoptosis induction (A549 cells): induce apoptosis
Clc1ccc(C2=Nn3c(CCc4cccnc4)nnc3SC2)cc1 [Compound 2d, 6-(4-chlorophenyl)-3-(2-(pyridine-3-yl)ethyl)-7H-[1,2,4]triazolo[3,4-b][1,3,4]thiadiazine] | 15.8 ± 0.35 (≈ 44.3 µM) | >31.75 | 2.4 | 3.8 | 1.3 | 92.5 | > 500 | Inhibition % (Akt; 3.94 µg/mL): 80.33±19.71%; Inhibition % (Akt; 7.88 µg/mL): 99.07±1.86%; Inhibition % (Akt; 15.75 µg/mL): 90.41±7.17%; IC50 value (Akt inhibitory effects) (Akt): 0.80 ± 0.10 µg/mL (≈ 2.25 µM); apoptosis induction (A549 cells): induce apoptosis
Brc1ccc(C2=Nn3c(CCc4cccnc4)nnc3SC2)cc1 [Compound 2e, G-(4-Bromophenyl)-3-(2-(pyridine-3-yl)ethyl)-7H-[1,2,4]triazolo[3,4-b][1,3,4]thiadiazine] | > 500 |  |  |  |  |  | > 500 | cytotoxic effects on A549 cell line [1]: did not show cytotoxic effects
N#Cc1ccc(C2=Nn3c(CCc4cccnc4)nnc3SC2)cc1 [Compound 2f, G-(4-Cyanophenyl)-3-(2-(pyridine-3-yl)ethyl)-7H-[1,2,4]triazolo[3,4-b][1,3,4]thiadiazine] | > 500 |  |  |  |  |  | > 500 | cytotoxic effects on A549 cell line [1]: did not show cytotoxic effects
FC(F)(F)c1ccc(C2=Nn3c(CCc4cccnc4)nnc3SC2)cc1 [Compound 2g, 3-(2-(Pyridine-3-yl)ethyl)-6-(4-(trifluoromethyl)phenyl)-7H-[1,2,4]triazolo[3,4-b][1,3,4]thiadiazine] | > 500 |  |  |  |  |  | > 500 | cytotoxic effects on A549 cell line [1]: did not show cytotoxic effects
Cc1ccc(C2=Nn3c(CCc4cccnc4)nnc3SC2)cc1 [Compound 2h, 3-(2-(Pyridine-3-yl)ethyl)-6-(p-tolyl)-7H-[1,2,4]triazolo[3,4-b][1,3,4]thiadiazine] | 41.3 ± 0.58 (≈ 123 µM) | >12.10 |  |  |  |  | > 500 | 
COc1ccc(C2=Nn3c(CCc4cccnc4)nnc3SC2)cc1 [Compound 2i, G-(4-Methoxyphenyl)-3-(2-(pyridine-3-yl)ethyl)-7H-[1,2,4]triazolo[3,4-b][1,3,4] thiadiazine] | 13.7 ± 2.52 (≈ 38.9 µM) |  |  |  |  |  | < 3.9 | IC50 values NIH/3T3 cell line ([2]; 24 hours): <3.90 µg/mL
c1cncc(CCc2nnc3n2N=C(c2ccc4ccccc4c2)CS3)c1 [Compound 2j, 6-(Naphthalene-2-yl)-3-(2-(pyridine-3-yl)ethyl)-7H-[1,2,4]triazolo[3,4-b][1,3,4] thiadiazine] | 4 (≈ 10.8 µM) | 1.67 | 1.0 | 3.6 | 5.0 | 90.3 | 6.66 ± 1.04 (≈ 17.9 µM) | Inhibition % (Akt; 2.0 µg/mL): 17.80±2.08%; Inhibition % (Akt; 4.0 µg/mL): 48.23±7.29%; Akt inhibitory effects (Akt): did not show significant Akt inhibitory effects
Nn1c(CCc2cccnc2)nnc1SCC(=O)Nc1nccs1 [Compound 3a, 2-((4-Amino-5-(2-(pyridine-3-yl)ethyl)-4H-1,2,4-triazole-3-yl)thio)-N-(thiazole-2-yl)acetamide] | 0.48 ± 0.04 (≈ 1.33 µM) | 430.54 | 0.4 | 3.1 | 5.6 | 91.0 | 207 ± 11.6 (≈ 572 µM) | Inhibition % (Akt; 0.48 µg/mL): 54.76±5.33%; Akt inhibitory effects (Akt): did not show significant Akt inhibitory effects
Nn1c(CCc2cccnc2)nnc1SCC(=O)Nc1nc2ccccc2s1 [Compound 3b, 2-((4-Amino-5-(2-(pyridine-3-yl)ethyl)-4H-1,2,4-triazole-3-yl)thio)-N-(benzothiazole-2-yl)acetamide] | 0.68 ± 0.18 (≈ 1.65 µM) | 34.31 | 0.7 | 3.0 | 3.2 | 93.1 | 23.3 ± 6.11 (≈ 56.7 µM) | Inhibition % (Akt; 0.98 µg/mL): 14.58±4.29%; Inhibition % (Akt; 3.90 µg/mL): 72.89±5.45%; IC50 value (Akt inhibitory effects) (Akt): 2.23 ± 0.12 µg/mL (≈ 5.42 µM)
Nn1c(CCc2cccnc2)nnc1SCC(=O)Nc1nc2ccc(Br)cc2s1 [Compound 3e, 2-((4-Amino-5-(2-(pyridine-3-yl)ethyl)-4H-1,2,4-triazole-3-yl)thio)-N-(6-bromobenzothiazole-2-yl)acetamide] | 362 ± 12.6 (≈ 737 µM) | >1.38 |  |  |  |  | > 500 | 
CCn1c(-c2nonc2N)nc2c(C#CC(C)(C)O)ncc(OC[C@H]3CCCNC3)c21 [GSK690693, reference compound] | 6.15 ± 0.49 (≈ 14.5 µM) |  |  |  |  |  |  | Inhibition % (Akt; 1.50 µg/mL): 34.46±1.47%; Inhibition % (Akt; 3.075 µg/mL): 49.88±5.55%; Inhibition % (Akt; 6.15 µg/mL): 100%; IC50 value (Akt inhibitory effects) (Akt): 2.93 ± 0.23 µg/mL (≈ 6.89 µM)
